Consider one compound from patent publication US20120118175A1, “TREATMENT TO REDUCE MICROORGANISMS WITH CARBON DIOXIDE BY MULTIPLE PRESSURE OSCILLATIONS” (SAFEFRESH TECHNOLOGIES, LLC, priority 2004, published 2012).

One assay deals with E. coli 0157. The experiment in a line: Inoculated meat cubes treated with carbon dioxide in high pressure reactor, E. coli 0157 plate count. The assay is classed as cell-based. The method, then: To carry out the experiments, a high pressure reactor was designed to the following specifications. • A vessel built to withstand about 3000 psig with top and bottom vents for the addition/venting of carbon dioxide gas as required. • An analog pressure gauge. • A digital temperature recorder on the top vent from the vessel. • A pH probe that could be raised/lowered into the center of the reactor top. • A supply of liquid carbon dioxide at about 300 psi and −20° C. • A supply of gaseous carbon dioxide heated to about 56° C. in a hot water bath. • A supplementary probe to measure the temperature of the reactor barrel surface. • Lap top computer to record temperature data.
FIG. 8 is a schematic illustration of laboratory equipment 800 used in carrying out various tests of the treatment of meat with carbon dioxide. The apparatus 800 includes pressure cylinders 804, 806, and 808 with high-pressure piping 824, pressure release safety valve 828 and on/off valves 812, 814, 816, 818, 820, and 822. Meat samples, having been inoculated, are suspended from a centrally located shaft within the cylinder 804 and the upper member 802 is bolted to the cylinder 804 in a manner that substantially ensures a leak-proof and pressure tight seal. A stream of fluid carbon dioxide 824 that progressively turns to liquid is transferred into the cylinder 804 until the suspended meat samples therein are immersed in the liquid carbon dioxide. After a recorded and selected period of time, the liquid carbon dioxide is removed from the cylinder 804 and the pressure therein reduced to ambient atmospheric pressure. The samples can then be removed from the cylinder and the reduction of bacteria population determined. The items 806 and 808 are commonly referred to as an intensifier. Opening valve 812 allows filling the cylinder 806 with low pressure fluid carbon dioxide, and then, after isolation of the lower pressure source of the fluid carbon dioxide, a piston in cylinder 808 is activated by hydraulic oil from line 826 (or high-pressure air or gas) and a smaller diameter piston in cylinder 806 compresses the fluid carbon dioxide and elevates the pressure. The higher pressure carbon dioxide fluid in line 824 is then transferred to cylinder 804 via a selected path through high-pressure piping 824 as shown.
Cell cultures were grown overnight in a nutrient broth. The cells were separated by centrifugation and washed in a sterile buffer. The E. coli cell suspension was then diluted to give log 7-9 cell per ml.
Meat was purchased at a local retail store. The meat was aseptically cut into 1 inch cubes and suspended by attachment to sterile fish hooks. Meat samples were then placed into an inoculation chamber where they were sprayed with about 10 mls of the cell inoculum. This was done ensuring that all 6 sides of each piece of meat received the same exposure to the E. coli. The samples were then allowed to stand for about 30 minutes at room temperature to achieve the attachment of the E. coli to the meat. One of these meat samples was immediately taken and analyzed for E. coli (as a control). The remaining inoculated samples were then placed into the reactor and the experiment started.
One (1) inch meat cube samples were suspended from the pH probe using small fishing hooks and line so that the cubes were suspended in the bottom third of the reactor and were neither touching each other nor the walls of the vessel.
(§1) Each meat sample was placed into a sterile bag and weighed, a known volume of sterile buffer was added as a diluent and the meat sample homogenized in a ‘Stomacher’. This suspension was then further diluted as 1:10 dilutions and duplicate 1 ml samples were plated onto the surface of agar media formulated for the enumeration of E. coli 0157. The bacterial levels were recorded as colony forming units CFU per g. or as log 10 of that number.
The methodology was as stated above. The reactor contained inoculated meat. […]

In another assay the test system is Meat Normal Flora. The experiment in a line: Un-inoculated meat exposed to CO2 in a supercritical fluid extractor, bacterial plate count. Type of assay: cell-based. As to conditions: for CFU/g / Logs: control 7.53 logs, listed as CO2. The method, then: as §1
The above experiments used the most exacting conditions available given the reactor equipment. The survival of natural microflora of meat when treated with carbon dioxide in the super critical range was also investigated.
In the Dairy Science chemistry research lab in Call Hall (KSU), equipment is available to achieve temperatures and pressures above the critical point of carbon dioxide (a Pepmaster GA made by the Suprex Corp.). This device is mainly used for lipid extraction from natural materials prior to further analysis.
The tests were undertaken to determine the efficacy of supercritical carbon dioxide using laboratory equipment shown schematically in FIGS. 8 and 9.
The sample cells 2 in parallel hold about 4 gr of sample which is sufficient to do microbial analysis and the equipment could control pressure up to about 7500 psig, temperature (above ambient), and time. Introduction of E. coli 0157 meat into the lab was not possible. […]

Setting [1] is: Experiment 1: 300-1000 psi, 10 min.
Setting [2] is: Experiment 3: 1000 psi @ 13° C. held 4 hours, analyzed immediately, control 7.87 logs, listed as Liquid CO2.
The mark [3] stands for this setting: Experiment 4: 1470 psi @ 29° C., 5 min.
[4] abbreviates: Experiment 4: 3000 psi @ 29° C., 5 min.

Several values for one entry are separate records, joined by “and”; a condition that tells them apart may be missing. Identical values can stand only once.

As for `O=C=O` [carbon dioxide], the “average of the 3 test samples” value in the assay with E. coli 0157 (setting [1]) is given as 7.22 log. The “log reduction versus control” value in the assay with E. coli 0157 (setting [1]) is 0.47 log; with E. coli 0157 (Experiment 2: -17° C. at 300 psig, then 1000 psig 5 min, meat frozen, listed as Liquid CO2), ~1 log and 1.27 log; in the assay on E. coli 0157 (Experiment 3: 1000 psig 4 hours, analyzed immediately), ~1 log and 0.86 log; in the assay with Meat Normal Flora (Experiment 5: supercritical, 3000 psi, 36° C., 5 min) it was ~2 log and 1.83 log. Also, the “average of the test samples” value in the assay on E. coli 0157 (Experiment 2: -17° C. at 300 psig, then 1000 psig 5 min) amounted to 6.5 log. Moreover, the CFU/g in the assay on E. coli 0157 (setting [2]) was 8,741,258.7 CFU/g and 14,344,362.3 CFU/g and 8,467,741.9 CFU/g; in the assay with Meat Normal Flora (setting [3]), 5,233,644.9 CFU/g and 9,523,809.5 CFU/g; in the assay with Meat Normal Flora (setting [4]), 9,029,345.4 CFU/g and 5,154,639.2 CFU/g. In addition, the Logs in the assay on E. coli 0157 (setting [2]) was 6.94 Logs and 7.16 Logs and 6.93 Logs; in the assay with Meat Normal Flora (setting [3]), 6.72 Logs and 6.98 Logs; in the assay on Meat Normal Flora (setting [4]), 6.96 Logs and 6.71 Logs. Also, the “further log kill by storage” value in the assay on E. coli 0157 (Experiment 3: storage in about 100% carbon dioxide at about 4° C. for 4 days after treatment) was 2.83 log. In the assay with E. coli 0157 (liquid carbon dioxide in the sub critical range alone), the “destruction of E. coli 0157 on meat surfaces” value was “no practical significance”. In the assay with E. coli 0157 (liquid carbon dioxide, experiment not specified), the “log kill with liquid carbon dioxide” value is listed as approximately 0.5 log. In addition, the “log bacteria reduction versus control” value with Meat Normal Flora (Experiment 4: 1470 psi @ 29° C. (line 21B)) is approximately 1 log; in the assay with Meat Normal Flora (Experiment 4: 3000 psi @ 29° C. (lines 22C and 23D)), approximately 1 log. For the same compound, the “log bacteria after the test” value in the assay with Meat Normal Flora (Experiment 5: 3000 psi, 36° C., 5 min (mean of replicates)) is listed as 5.53 log.
